Where two headings read alike, the source gives them in different places.
Legend:
[1] = cited from earlier work
[2] = target: T1, urease (Helicobacter pylori, UniProt P69996); assay: Urease activity of H. pylori under in vitro treatment; type: cell-based; settings: wildtype H. pylori
T1 construct: endogenous in cells
Source text: (§1) H. pylori bacteria which could not produce α-carbonic anhydrase gene (deletion mutants) were unable to survive in acid and were incapable of raising their periplasmic pH even with wildtype urease activity levels. […] This is illustrated in FIG. 1 of the appended drawings.

[3] = test system: H. pylori; assay: Survival of wildtype H. pylori in acid, in vitro; type: cell-based, Helicobacter pylori
Source text: as §1
Therefore, it is now understood in accordance with the present invention that it is the combination of urease activation, expression of UreI and the periplasmic carbonic anhydrase that allows gastric colonization by H. pylori. […] Thus, targeting the acid biology of this pathogen provides specific H. pylori therapy. It is recognized in accordance with the present invention that within these three targets, a safe drug is only available for carbonic anhydrase.

[4] = test system: H. pylori; assay: Periplasmic pH buffering of H. pylori in acid with urea, fluorescent pH sensitive dye BCECF (FIG. 1); type: cell-based, Helicobacter pylori
Protocol: as §1
Specifically, H. pylori was incubated in acid along with a fluorescent pH sensitive dye, BCECF, (bis-carboxy ethylcarboxy fluorescein) and then urea was added at 5 mM which is substantially the gastric juice concentration. In part A of the figure the increase in periplasmic pH is shown by the increased fluorescence of the dye indicating viable H. pylori bacteria.

[5] = test system: basal acid secretion and stimulated acid secretion; settings: humans, cited from earlier work

T1 sequence (P69996 whole entry): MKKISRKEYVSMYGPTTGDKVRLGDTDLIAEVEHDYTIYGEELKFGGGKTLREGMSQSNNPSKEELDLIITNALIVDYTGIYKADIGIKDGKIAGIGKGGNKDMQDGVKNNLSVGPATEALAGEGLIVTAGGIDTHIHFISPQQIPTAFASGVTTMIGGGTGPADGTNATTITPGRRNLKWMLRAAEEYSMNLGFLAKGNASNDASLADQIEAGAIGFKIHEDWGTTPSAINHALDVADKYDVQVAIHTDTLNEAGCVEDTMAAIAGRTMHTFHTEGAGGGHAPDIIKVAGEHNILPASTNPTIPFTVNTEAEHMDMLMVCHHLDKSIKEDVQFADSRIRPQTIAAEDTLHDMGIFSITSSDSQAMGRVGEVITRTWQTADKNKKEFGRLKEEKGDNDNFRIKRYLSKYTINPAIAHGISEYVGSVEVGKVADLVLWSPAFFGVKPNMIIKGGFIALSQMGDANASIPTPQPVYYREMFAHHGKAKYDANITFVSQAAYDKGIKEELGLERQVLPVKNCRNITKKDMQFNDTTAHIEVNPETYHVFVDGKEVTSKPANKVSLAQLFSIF
T1 sequence (P14916 whole entry, further chain): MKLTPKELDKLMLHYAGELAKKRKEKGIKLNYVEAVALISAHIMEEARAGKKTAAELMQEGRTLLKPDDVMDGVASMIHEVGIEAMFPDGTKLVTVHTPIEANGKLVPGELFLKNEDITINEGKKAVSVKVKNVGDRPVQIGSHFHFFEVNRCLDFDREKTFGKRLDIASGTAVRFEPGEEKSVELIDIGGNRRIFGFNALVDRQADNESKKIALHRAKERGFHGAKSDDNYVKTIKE

CC(=O)Nc1nnc(S(N)(=O)=O)s1 [acetazolamide]
relapse rate ([1]; 2 years after treatment, treated for 30 days (Valean et al.)): 6.2% | relapse rate ([1]; 3 week treatment, ulcer healing (Erdei et al.)): 11% | patients with intragastric pain abolished ([1]; 118 gastric ulcer patients, oral, after 3-5 days): 94% | patients with complete ulcer healing (endoscopic evaluation) ([1]; after 15 days of treatment): 87% | patients with complete ulcer healing (endoscopic evaluation) ([1]; after 30 days of treatment): 94% | effect on urease activity [2]: without affecting urease activity | loss of survival of H. pylori in acid ([3]; in acid, drug present): > 3 log order of magnitude | bacterial ability to survive in acid ([3]; wildtype H. pylori, in vitro treatment): inhibited the bacterial ability to survive in acid | periplasmic buffering of pH (BCECF fluorescence) ([4]; normal H. pylori in acid, urea 5 mM, drug added to the medium, FIG. 1 part C): no periplasmic buffering of pH detected | bacterial ability to buffer its periplasm ([4]; wildtype H. pylori in acid, in vitro treatment): inhibited | reduction of histamine stimulated acid secretion (MAO) ([5]; histamine stimulated): 83.2% | reduction of basal acid output (BAO) [5]: 92.3% | return of normal acid secretion following cessation of treatment [5]: 3-5 | time of treatment to maximal acid inhibition [5]: 3 to 5 days
